“And” between values parts separate entries of the source, which are not always exact repeats. Equal entries are not always repeated. Toxic doses and inconclusive results are not listed. Rule as the data show it: active = T/C of 150% or more; inactive = T/C below 125%.
Tested on: L1210 leukemia ip in BDF1 mice, survival T/C
Assay: NCI In Vivo Anticancer Drug Screen. Data for tumor model L1210 Leukemia (intraperitoneal) in B6D2F1 (BDF1) mice
Conditions: endpoint: mean survival time, higher = longer survival
Outline: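 Tumor cells were implanted, animals were treated, and survival was followed. The result divides the treated measurement by the vehicle-control measurement.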

Measured: T/C

O=C(O)c1[nH]c(=O)[nH]c(=O)c1F
active: dose: 0.37 mg/kg/injection, schedule: Q01DX015 (ip), vehicle: saline 157 % of control | dose: 0.75 mg/kg/injection, schedule: Q01DX015 (ip), vehicle: saline 188 % of control | dose: 3.0 mg/kg/injection, schedule: Q01DX005 (oral), vehicle: saline 157 % of control | dose: 3.0 mg/kg/injection, schedule: Q01DX009 (ip), vehicle: saline 165 % of control | dose: 3.0 mg/kg/injection, schedule: Q01DX015 (ip), vehicle: saline 191 % of control | dose: 3.0 mg/kg/injection, schedule: Q01DX015 (oral), vehicle: saline 157 % of control | dose: 4.0 mg/kg/injection, schedule: Q01DX009 (ip), vehicle: saline with Tween-80 161 % of control | dose: 4.0 mg/kg/injection, schedule: Q01DX009 (ip), vehicle: saline 165 % of control | dose: 5.0 mg/kg/injection, schedule: Q01DX009 (ip), vehicle: saline 155 % of control | dose: 5.0 mg/kg/injection, schedule: Q01DX015 (ip), vehicle: carboxymethylcellulose (CMC) 155 % of control | dose: 6.0 mg/kg/injection, schedule: Q01DX005 (oral), vehicle: saline 174 % of control | dose: 6.0 mg/kg/injection, schedule: Q01DX009 (ip), vehicle: saline 211 % of control | dose: 6.0 mg/kg/injection, schedule: Q01DX015 (im), vehicle: saline 179 % of control | dose: 6.0 mg/kg/injection, schedule: Q01DX015 (ip), vehicle: saline 164 % of control | dose: 6.0 mg/kg/injection, schedule: Q01DX015 (oral), vehicle: saline 191 % of control | dose: 6.0 mg/kg/injection, schedule: Q01DX015 (sc), vehicle: saline 182 % of control | dose: 6.0 mg/kg/injection, schedule: Q## X024 (oral), vehicle: saline 157 % of control | dose: 7.0 mg/kg/injection, schedule: Q01DX015 (ip), vehicle: carboxymethylcellulose (CMC) 189 % of control
inactive: dose: 0.09 mg/kg/injection, schedule: Q01DX005 (oral), vehicle: saline 112 % of control | dose: 0.18 mg/kg/injection, schedule: Q01DX005 (oral), vehicle: saline 108 % of control | dose: 0.18 mg/kg/injection, schedule: Q01DX015 (ip), vehicle: saline 115 % of control | dose: 0.37 mg/kg/injection, schedule: Q01DX005 (oral), vehicle: saline 115 % of control | dose: 0.63 mg/kg/injection, schedule: Q01DX015 (ip), vehicle: carboxymethylcellulose (CMC) 105 % of control | dose: 0.75 mg/kg/injection, schedule: Q01DX005 (oral), vehicle: saline 120 % of control | dose: 0.75 mg/kg/injection, schedule: Q01DX015 (oral), vehicle: saline 115 % of control | dose: 0.75 mg/kg/injection, schedule: Q## X003 (oral), vehicle: saline 101 % of control | dose: 0.75 mg/kg/injection, schedule: Q## X024 (oral), vehicle: saline 112 % of control | dose: 1.0 mg/kg/injection, schedule: Q01DX009 (ip), vehicle: saline with Tween-80 114 % of control | dose: 1.0 mg/kg/injection, schedule: Q01DX009 (ip), vehicle: saline 113 % of control | dose: 1.25 mg/kg/injection, schedule: Q01DX009 (ip), vehicle: saline 97 % of control and 111 % of control | dose: 1.25 mg/kg/injection, schedule: Q01DX015 (ip), vehicle: carboxymethylcellulose (CMC) 111 % of control | dose: 1.3 mg/kg/injection, schedule: Q## X008 (oral), vehicle: saline 111 % of control | dose: 1.5 mg/kg/injection, schedule: Q01DX006 (iv), vehicle: saline 112 % of control | dose: 1.5 mg/kg/injection, schedule: Q01DX009 (oral), vehicle: saline 114 % of control | dose: 1.5 mg/kg/injection, schedule: Q01DX015 (im), vehicle: saline 117 % of control | dose: 1.5 mg/kg/injection, schedule: Q01DX015 (sc), vehicle: saline 120 % of control | dose: 1.5 mg/kg/injection, schedule: Q## X003 (oral), vehicle: saline 104 % of control | dose: 1.5 mg/kg/injection, schedule: Q## X024 (oral), vehicle: saline 113 % of control | dose: 2.5 mg/kg/injection, schedule: Q01DX009 (ip), vehicle: saline 117 % of control | dose: 2.5 mg/kg/injection, schedule: Q01DX015 (ip), vehicle: carboxymethylcellulose (CMC) 122 % of control | dose: 2.6 mg/kg/injection, schedule: Q## X008 (oral), vehicle: saline 114 % of control | dose: 3.0 mg/kg/injection, schedule: Q01DX006 (iv), vehicle: saline 120 % of control | dose: 3.0 mg/kg/injection, schedule: Q## X003 (oral), vehicle: saline 103 % of control | dose: 5.0 mg/kg/injection, schedule: Q01DX Z (ip), vehicle: methylcellulose (MC) 119 % of control | dose: 5.2 mg/kg/injection, schedule: Q## X008 (oral), vehicle: saline 119 % of control | dose: 6.0 mg/kg/injection, schedule: Q01DX006 (iv), vehicle: saline 121 % of control | dose: 6.0 mg/kg/injection, schedule: Q## X003 (oral), vehicle: saline 113 % of control
